Measurements taken from the supplement of paper PMC10307832.

What was measured:
Test in all cases: relative viability (nuclei count vs DMSO), 5 days (fraction); higher = more cells survive
COR-L 105 = tested on: COR-L 105
Method in brief: (§1)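 Values are medians from duplicate plates. Each reflects relative viability, defined as the nuclei count of treated wells over that of vehicle wells. Lung cancer cell lines in 1536-well plates were pin-tool dosed one day after seeding with one drug alone or with a fixed anchor-drug dose plus five library-drug doses (not always all listed) in √10 steps, then fixed, stained and imaged at 4× after 5 days.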

COR-L23 = tested on: COR-L23
Method in brief: as §1

EPLC-272H = tested on: EPLC-272H
Method in brief: as §1

HARA = tested on: HARA
Method in brief: as §1

HCC-15 = tested on: HCC-15
Method in brief: as §1

HCC-366 = tested on: HCC-366
Method in brief: as §1

HCC-44 = tested on: HCC-44
Method in brief: as §1

HCC-78 = tested on: HCC-78
Method in brief: as §1

HCC-827 = tested on: HCC-827
Method in brief: as §1

LCLC-103H = tested on: LCLC-103H
Method in brief: as §1

NCI-H1395 = tested on: NCI-H1395
Method in brief: as §1

NCI-H1437 = tested on: NCI-H1437
Method in brief: as §1

NCI-H1792 = tested on: NCI-H1792
Method in brief: as §1

NCI-H1944 = tested on: NCI-H1944
Method in brief: as §1

NCI-H1975 = tested on: NCI-H1975
Method in brief: as §1

NCI-H2023 = tested on: NCI-H2023
Method in brief: as §1

NCI-H2085 = tested on: NCI-H2085
Method in brief: as §1

NCI-H2405 = tested on: NCI-H2405
Method in brief: as §1

NCI-H358 = tested on: NCI-H358
Method in brief: as §1

NCI-H661 = tested on: NCI-H661
Method in brief: as §1

NCI-H727 = tested on: NCI-H727
Method in brief: as §1

SK-LU-1 = tested on: SK-LU-1
Method in brief: as §1

UMC-11 = tested on: UMC-11
Method in brief: as §1

For O=C(O)CCCCC(CCSCc1ccccc1)SCc1ccccc1 (centres undefined) [CPI-613] + C[C@]1(O)C[C@@H](c2nc(-c3ccc4ccc(-c5ccccc5)nc4c3)c3c(N)nccn32)C1 [Linsitinib] (partner 1 µM), the relative viability (COR-L 105; first compound 5 µM) was 1.15, the relative viability (COR-L 105; first compound 15.81 µM) was 0.77 and the relative viability (COR-L 105; first compound 50 µM) was 0.902. It also gave a relative viability (COR-L 105; first compound 158.11 µM) of 0.664, a relative viability (COR-L 105; first compound 500 µM) of 0.181 and a relative viability (COR-L23; first compound 5 µM) of 0.851. For the same compound, the relative viability (COR-L23; first compound 15.81 µM) was 0.918, the relative viability (COR-L23; first compound 50 µM) was 0.779 and the relative viability (COR-L23; first compound 158.11 µM) was 0.334. The relative viability (COR-L23; first compound 500 µM) was 0.0236, the relative viability (EPLC-272H; first compound 5 µM) was 1.21 and the relative viability (EPLC-272H; first compound 15.81 µM) was 1.15. For the same compound, the relative viability (EPLC-272H; first compound 50 µM) was 1.05, the relative viability (EPLC-272H; first compound 158.11 µM) was 0.759 and the relative viability (EPLC-272H; first compound 500 µM) was 0.698. The relative viability (HARA; first compound 5 µM) was 0.906, the relative viability (HARA; first compound 15.81 µM) was 0.864 and the relative viability (HARA; first compound 50 µM) was 0.991. For the same compound, the relative viability (HARA; first compound 158.11 µM) was 0.44, the relative viability (HARA; first compound 500 µM) was 0.0277 and the relative viability (HCC-15; first compound 5 µM) was 0.878. It also gave a relative viability (HCC-15; first compound 15.81 µM) of 0.845, a relative viability (HCC-15; first compound 50 µM) of 0.794 and a relative viability (HCC-15; first compound 158.11 µM) of 0.467. For the same compound, the relative viability (HCC-15; first compound 500 µM) was 0.359, the relative viability (HCC-366; first compound 5 µM) was 0.601 and the relative viability (HCC-366; first compound 15.81 µM) was 0.637. For the same compound, the relative viability (HCC-366; first compound 50 µM) was 0.597, the relative viability (HCC-366; first compound 158.11 µM) was 0.587 and the relative viability (HCC-366; first compound 500 µM) was 0.0054. For the same compound, the relative viability (HCC-44; first compound 5 µM) was 0.625, the relative viability (HCC-44; first compound 15.81 µM) was 0.666 and the relative viability (HCC-44; first compound 50 µM) was 0.717. For the same compound, the relative viability (HCC-44; first compound 158.11 µM) was 0.393, the relative viability (HCC-44; first compound 500 µM) was 0.0377 and the relative viability (HCC-78; first compound 5 µM) was 0.48. It also gave a relative viability (HCC-78; first compound 15.81 µM) of 0.538, a relative viability (HCC-78; first compound 158.11 µM) of 0.573 and a relative viability (HCC-78; first compound 500 µM) of 0.487. For the same compound, the relative viability (HCC-827; first compound 5 µM) was 0.967, the relative viability (HCC-827; first compound 15.81 µM) was 0.892 and the relative viability (HCC-827; first compound 50 µM) was 0.906. The relative viability (HCC-827; first compound 158.11 µM) was 0.613, the relative viability (HCC-827; first compound 500 µM) was 0.0916 and the relative viability (LCLC-103H; first compound 5 µM) was 1.11. It also gave a relative viability (LCLC-103H; first compound 15.81 µM) of 1.01, a relative viability (LCLC-103H; first compound 50 µM) of 1.08 and a relative viability (LCLC-103H; first compound 158.11 µM) of 1. For the same compound, the relative viability (LCLC-103H; first compound 500 µM) was 0.866, the relative viability (NCI-H1395; first compound 5 µM) was 1.09 and the relative viability (NCI-H1395; first compound 15.81 µM) was 0.961. The relative viability (NCI-H1395; first compound 50 µM) was 1.08, the relative viability (NCI-H1395; first compound 158.11 µM) was 1.1 and the relative viability (NCI-H1395; first compound 500 µM) was 1.04. The relative viability (NCI-H1437; first compound 5 µM) was 1.03, the relative viability (NCI-H1437; first compound 15.81 µM) was 0.902 and the relative viability (NCI-H1437; first compound 50 µM) was 0.916. It also gave a relative viability (NCI-H1437; first compound 158.11 µM) of 0.137, a relative viability (NCI-H1437; first compound 500 µM) of 0.0235 and a relative viability (NCI-H1792; first compound 5 µM) of 0.514. For the same compound, the relative viability (NCI-H1792; first compound 15.81 µM) was 0.49, the relative viability (NCI-H1792; first compound 50 µM) was 0.56 and the relative viability (NCI-H1792; first compound 158.11 µM) was 0.411. The relative viability (NCI-H1792; first compound 500 µM) was 0.512, the relative viability (NCI-H1944; first compound 5 µM) was 1.31 and the relative viability (NCI-H1944; first compound 15.81 µM) was 1.15. The relative viability (NCI-H1944; first compound 50 µM) was 1.14, the relative viability (NCI-H1944; first compound 158.11 µM) was 0.968 and the relative viability (NCI-H1944; first compound 500 µM) was 0.787. For the same compound, the relative viability (NCI-H1975; first compound 5 µM) was 0.938, the relative viability (NCI-H1975; first compound 15.81 µM) was 1.03 and the relative viability (NCI-H1975; first compound 50 µM) was 1.13. It also gave a relative viability (NCI-H1975; first compound 158.11 µM) of 0.541, a relative viability (NCI-H1975; first compound 500 µM) of 0.0601 and a relative viability (NCI-H2023; first compound 5 µM) of 0.614. It also gave a relative viability (NCI-H2023; first compound 15.81 µM) of 0.698, a relative viability (NCI-H2023; first compound 50 µM) of 0.668 and a relative viability (NCI-H2023; first compound 158.11 µM) of 0.243. For the same compound, the relative viability (NCI-H2023; first compound 500 µM) was 0.0069, the relative viability (NCI-H2085; first compound 5 µM) was 0.854 and the relative viability (NCI-H2085; first compound 15.81 µM) was 0.759. For the same compound, the relative viability (NCI-H2085; first compound 50 µM) was 0.95, the relative viability (NCI-H2085; first compound 158.11 µM) was 0.548 and the relative viability (NCI-H2085; first compound 500 µM) was 0.2. For the same compound, the relative viability (NCI-H2405; first compound 5 µM) was 0.979, the relative viability (NCI-H2405; first compound 15.81 µM) was 0.897 and the relative viability (NCI-H2405; first compound 50 µM) was 0.895. For the same compound, the relative viability (NCI-H2405; first compound 158.11 µM) was 0.818, the relative viability (NCI-H2405; first compound 500 µM) was 0.773 and the relative viability (NCI-H358; first compound 5 µM) was 0.684. For the same compound, the relative viability (NCI-H358; first compound 15.81 µM) was 0.769, the relative viability (NCI-H358; first compound 50 µM) was 0.743 and the relative viability (NCI-H358; first compound 158.11 µM) was 0.347. It also gave a relative viability (NCI-H358; first compound 500 µM) of 0.0758, a relative viability (NCI-H661; first compound 5 µM) of 0.49 and a relative viability (NCI-H661; first compound 15.81 µM) of 0.458. It also gave a relative viability (NCI-H661; first compound 50 µM) of 0.668, a relative viability (NCI-H661; first compound 158.11 µM) of 0.503 and a relative viability (NCI-H661; first compound 500 µM) of 0.511. For the same compound, the relative viability (NCI-H727; first compound 5 µM) was 0.251, the relative viability (NCI-H727; first compound 15.81 µM) was 0.343 and the relative viability (NCI-H727; first compound 50 µM) was 0.2. For the same compound, the relative viability (NCI-H727; first compound 158.11 µM) was 0.216, the relative viability (NCI-H727; first compound 500 µM) was 0.0496 and the relative viability (SK-LU-1; first compound 5 µM) was 1.04. It also gave a relative viability (SK-LU-1; first compound 15.81 µM) of 0.93, a relative viability (SK-LU-1; first compound 50 µM) of 0.893 and a relative viability (SK-LU-1; first compound 158.11 µM) of 0.177. It also gave a relative viability (SK-LU-1; first compound 500 µM) of 0.122, a relative viability (UMC-11; first compound 5 µM) of 0.881 and a relative viability (UMC-11; first compound 15.81 µM) of 1. The relative viability (UMC-11; first compound 50 µM) was 0.992, the relative viability (UMC-11; first compound 158.11 µM) was 0.282 and the relative viability (UMC-11; first compound 500 µM) was 0.0946.
